From a melting point compilation (Tetko et al.; mined from patent text by program, amines drawn as free bases though some values may be those of a salt) come the findings set out here.

Structures are written as SMILES.

As a reminder, the melting point is the temperature of the solid-liquid transition.

`CCOC(=O)C(Cl)(Cl)CCCCCCCCCCCCSc1ccc(NC(=O)c2ccc(Cl)cc2)cc1` showed a melting point of 130 to 131 °C.
`O=c1oc2ccccc2c2oc(=S)c(-c3ccccc3)cc12` showed a melting point of 256 to 257 °C.
The molecule `Cc1nnc(Cl)c(-c2c(F)cc(F)cc2F)c1-c1ccc(Cl)nc1` came in with a melting point of 182 to 183 °C.
In turn, `CCOC(=O)c1c2n(c3cc(N4CCN(C(C)=O)CC4)c(Cl)cc3c1=O)CS2` showed a melting point of 266 to 268 °C.
Take `CC1=CC2c3cccc4[nH]c(SC(C)C)c(c34)CC2N(C)C1` (stereo unspecified): the melting point is 145 to 147 °C.
`CS(=O)(=O)Nc1ccc(CCN2CCc3ccc(NS(C)(=O)=O)cc3CC2)cc1`: the melting point fell in the range of 184 to 187 °C.
As to `ClC1=Nc2cc(Br)ccc2Oc2cscc21`, the melting point lay in the range of 196 to 197 °C.
As for `CC(=NO)c1ccc(C(F)(F)C(F)(F)c2ccccc2)cc1`, the melting point was in the range of 137 to 139 °C.
Molecule `CCCc1cc(O)nc(C(Cl)(Cl)Cl)n1` registered a melting point of 107 to 110 °C.
The value for `COc1ccc(-c2cc(=Nc3c(C)cc(C)cc3C)n(C)c(N)n2)cc1OC` was 192 to 195 °C.
The molecule `CCCCNC(=O)[C@@H](C[C@H](O)[C@@H](N)C[C@H](Cc1ccc(OC)c(CCOCOC)c1)C(C)C)C(C)C` gave a melting point of 56 to 58 °C.
With `O=C(OCc1ccccc1)c1ccc(OC(=O)c2ccc(O)cc2)cc1`, the melting point lay within 137 to 138 °C.
Consider `CN=C1SCC(O)(c2ccc(Cl)c(S(=O)(=O)N(C)C)c2)N1C` (stereo unspecified), for which the melting point lay in the range of 157 to 158 °C.
`CCn1nc(C)c(N)c1C` displayed a melting point of 69 to 70 °C.
Then `CCCCCCC(C(=O)O)N1NCc2cc(-c3ccccc3-c3nn[nH]n3)ccc21` (stereo unspecified), with 105 to 110 °C; and `COc1ccc(C(=O)CC(=O)Nc2ccc(C)cc2)cc1`, with 122 to 126 °C; and `O=CNNc1ccc(NC(=S)NC2CCCCC2)cc1`, with 158 to 160 °C.
The value for `CCCCOC(=O)C(NC(=O)c1cc([N+](=O)[O-])cc([N+](=O)[O-])c1)C(C)C` (stereo unspecified) was 88 to 91 °C.
Take `Cc1c(CNCCc2cc3cccc(F)c3n2C)ncn1S(=O)(=O)N(C)C`: the melting point was 114 to 116 °C.
`CCCCCCCCCCCCCc1c[nH]c(C=O)c1` gave a melting point of 61 to 64 °C.
Turning to `Cc1cc(O)ccc1-n1cc(C(=O)O)c(=O)cc1C=NN1CCOCC1`, the melting point lay in the range of 267 to 268 °C.
Then `CC1=C(CCO)c2cc(F)ccc2C1`, with 65 to 66.5 °C; and `CCC(C)P(=S)(NP(=S)(C(C)CC)C(C)CC)C(C)CC` (stereo unspecified), with 110 to 114 °C; and `CC(=O)c1cc2cc(OCC(=O)O)c(Cl)c(Cl)c2s1`, with 203 to 205 °C.
Then `CCc1ccc(C(=O)Nc2ccc(F)c(F)c2)cc1N`, with 108 to 110 °C; and `COc1cc2c(c3c1C1CCC3CC1)OC(COS(=O)(=O)c1ccc(C)cc1)C2` (stereo unspecified), with 136 to 141 °C.
`O=c1nc(-c2cccc(-c3ccco3)n2)sc2ccccc12`: the melting point was 218 °C.
Molecule `O=C(Oc1ccc(Cl)c2c(=O)c3ccccc3sc12)c1ccccc1` showed a melting point of 177 to 178 °C.
In the case of `COc1cc2ncnc(N3CCN(C(=O)Nc4ccc(S(C)(=O)=O)cc4)CC3)c2cc1OC`, the melting point lay in the range of 266 to 269 °C.
With `COC(=O)Nc1cc(C)on1`, the melting point lay in the range of 136 to 137 °C.
Regarding `O=C(O)COc1cccc2c1CCc1sc(S(=O)(=O)CC=Cc3ccccc3)nc1-2`, the melting point is 210 to 214 °C.
The value for `COC(=O)C=Cc1cccc(NC(=O)c2cccn2C)c1` was 89 to 90 °C; that for `CCCCCCCCCCCC1OC1CO` (stereo unspecified) was 68 to 70 °C; that for `O=C(O)Cc1ccc(NC(=O)C(CCc2ccccc2)NS(=O)(=O)c2ccc(Br)cc2)cc1` (racemic) was 155 to 160 °C.
Consider `O=[N+]([O-])C=C1NCCCN1c1ccc(Cl)nc1`, for which the melting point was found to be 202 °C.
With `O=C(O)c1cccc(-c2cccc([N+](=O)[O-])c2)c1`, the melting point lay in the range of 271 to 272 °C.
Then `CCOC(C)COC1CCNCC1` (stereo unspecified), with 68 to 70 °C; and `CCn1ncc(C(=S)c2ccc3c(c2C)/C(=N/OC)CCS3)c1O`, with 92 to 97 °C; and `COC(=O)C1=C(C)NC(C)=C(C(=O)OCC2CCCO2)C1c1cccc(Cl)c1Cl` (stereo unspecified), with 172 to 173 °C.
As to `ClCCCCOc1ccccc1/C=C/c1nc2ccccc2o1`, the melting point was 92 to 93 °C.
For the molecule `CCCCCCNc1cc(-c2nc(=O)c3ccccc3s2)ccn1`, the melting point was 134 to 135 °C.
`CCOc1ccc(CC(=O)Nc2ccc(S(=O)(=O)Nc3ccccc3C(=O)O)cc2)cc1` registered a melting point of 241 to 242 °C.
Then `CSc1nc(N)c2ncn(C3CCCCC3)c2n1`, with 222 to 224 °C.
As to `CCSc1nc(=O)n(CC(C)(C)C)c(=O)n1N`, the melting point lay within 202 to 204 °C.
The molecule `CC(=O)c1ccc(F)c(COc2ccc(S(=O)(=O)c3ccc(C)nc3Nc3c(C)cc(C)cc3C)cc2)c1` displayed a melting point of 141 to 143 °C.
The value for `C[Si](C)(C)c1cc(Cl)sc1C(=O)NCCOS(C)(=O)=O` was 82 to 86 °C.
In turn, `Cc1ccc(N)c(C#Cc2ccccc2)n1` gave a melting point of 154 to 155 °C.
Take `C=CC(=O)Nc1csc(Br)n1`: the melting point lay within 152 to 154 °C.
In turn, `CN(Cc1ccc(S(C)(=O)=O)s1)C(=O)C12CC3CC(CC(C3)C1)C2` showed a melting point of 114 to 116 °C.
Then `COC1CCC2C3CCC4CC(=O)C(Cl)CC4(C)C3CCC12C` (stereo unspecified), with 202 to 210 °C.
The value for `CC(Cc1cc(F)cc2cc(Cl)oc12)NC(=O)OC(C)(C)C` (stereo unspecified) was 133 to 135 °C; that for `NCCOCC(O)c1ccc2sccc2c1` (stereo unspecified) was 87 to 90.5 °C; that for `O=C(c1ccc(F)cc1)C1CCN(CCCn2c(=O)[nH]c3cccc(Cl)c32)CC1` was 138 °C.
Regarding `CCOC(=O)C(C)Oc1ccc(Oc2nnc3cc(Br)ccc3n2)cc1` (stereo unspecified), the melting point stood at 104 °C.
The molecule `CN1CCN(c2cc([N+](=O)[O-])ccc2Cl)CC1` showed a melting point of 63 to 64 °C.
The molecule `COc1cc(Cc2cnc(N)nc2N)cc2c1OC(C)(C)C=C2Cl` gave a melting point of 221 to 222 °C.
In turn, `CCCCNc1cccnc1S(N)(=O)=O` displayed a melting point of 100 to 101 °C.
The value for `O=c1[nH]cnc2c(CN[C@H](CO)[C@H](O)CO)c[nH]c12` was 230 °C; that for `COc1ccc(-c2cc(-c3ccccc3)[nH]c2C(=O)NCc2ccc(C(=O)Nc3ncccn3)cc2)cc1` was 190 to 191 °C.
Molecule `Oc1c(CCc2ccccc2)cnc2c(-c3cc(-c4ccccc4)cs3)cnn12` yielded a melting point of 278 to 285 °C.
The value for `Cc1cc(Oc2ccc(NC(=O)c3ccccc3C(c3ccc(O)cc3)c3ccc(O)cc3)cn2)cc(C)c1Cl` was 125 °C.
The value for `O=C(O)CCC(CCC(=O)O)(CCC(=O)O)C(=O)c1ccc(Cl)cc1` was 135 to 137 °C; that for `O=C(Cc1cccc(O)c1)c1cccc(O)c1` was 151 to 154 °C.
The molecule `CCCCCCCCCCCCCCCCSCC(O)COC(c1ccccc1)(c1ccccc1)c1ccccc1` (stereo unspecified) had a melting point of 61 to 62 °C.
The value for `COc1ccccc1N1CCN(CCCc2ccc(C3CCC(=O)N3)cc2)CC1` (stereo unspecified) was 109 to 111 °C; that for `CCCCCCNC(=O)Oc1ccc2ncccc2c1` was 89 °C.
